Assay results published in article PMC4685510, “A Cell Biologist’s Field Guide to Aurora Kinase Inhibitors” (Frontiers in Oncology, 2015).
Several values for one entry are separate records, joined by “and”; a condition that tells them apart may be missing. Equal values may be shown once. Read-outs that look alike come from different tables or passages of the source.

Assays:
Assay in all cases: biochemical
Assay type in all cases: biochemical
[1] = target: 363 human kinases (including Aurora A/B/C) (Homo sapiens, UniProt P07949); conditions: RET; for remaining activity at 0.1 µM: 100 nM; for remaining activity at 0.1 µM / remaining activity at 0.5 µM: read-out: % Enzyme Activity (relative to DMSO controls)
Source text: (§1) However, the Aurora A/B selectivity ratios derived from our in vitro and in vivo data can be compared to prioritize inhibitors.

[2] = target: T1, 363 human kinases (including Aurora A/B/C) (Homo sapiens, UniProt O15146); conditions: MUSK; for remaining activity at 0.1 µM: 100 nM; for remaining activity at 0.1 µM / remaining activity at 0.5 µM: read-out: % Enzyme Activity (relative to DMSO controls)
T1 sequence (O15146 24-869): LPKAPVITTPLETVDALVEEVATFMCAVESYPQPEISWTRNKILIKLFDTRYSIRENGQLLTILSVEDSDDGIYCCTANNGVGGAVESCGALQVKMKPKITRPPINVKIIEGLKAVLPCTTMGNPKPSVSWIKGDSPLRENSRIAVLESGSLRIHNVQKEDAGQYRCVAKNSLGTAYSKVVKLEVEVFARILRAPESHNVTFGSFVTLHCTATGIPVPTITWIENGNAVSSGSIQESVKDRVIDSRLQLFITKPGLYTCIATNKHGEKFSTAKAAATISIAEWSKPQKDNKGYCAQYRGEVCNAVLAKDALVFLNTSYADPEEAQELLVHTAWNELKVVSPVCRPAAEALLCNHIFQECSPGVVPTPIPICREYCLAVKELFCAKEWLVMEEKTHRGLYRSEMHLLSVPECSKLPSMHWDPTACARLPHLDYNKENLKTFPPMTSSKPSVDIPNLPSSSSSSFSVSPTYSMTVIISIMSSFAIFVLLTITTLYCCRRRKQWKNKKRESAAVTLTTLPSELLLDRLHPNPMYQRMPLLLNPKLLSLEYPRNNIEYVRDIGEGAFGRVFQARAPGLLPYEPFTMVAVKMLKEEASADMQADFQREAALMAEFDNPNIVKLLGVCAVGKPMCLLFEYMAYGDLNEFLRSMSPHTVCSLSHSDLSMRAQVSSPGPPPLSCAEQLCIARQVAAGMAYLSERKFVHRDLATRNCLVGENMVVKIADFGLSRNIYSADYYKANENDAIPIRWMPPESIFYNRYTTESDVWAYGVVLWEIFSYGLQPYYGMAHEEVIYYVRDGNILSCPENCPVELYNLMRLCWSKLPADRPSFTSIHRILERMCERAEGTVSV
Source text: as §1

[3] = target: 363 human kinases (including Aurora A/B/C) (Homo sapiens, UniProt Q9H3Y6); conditions: SRMS; for remaining activity at 0.1 µM: 100 nM; for remaining activity at 0.1 µM / remaining activity at 0.5 µM: read-out: % Enzyme Activity (relative to DMSO controls)
Source text: as §1

[4] = target: 363 human kinases (including Aurora A/B/C) (Homo sapiens, UniProt P35916); conditions: for remaining activity at 0.1 µM / remaining activity at 0.5 µM: read-out: % Enzyme Activity (relative to DMSO controls)
Source text: as §1

[5] = target: T2, 363 human kinases (including Aurora A/B/C) (Homo sapiens, UniProt P53778); conditions: P38g; for remaining activity at 0.1 µM: 100 nM; for remaining activity at 0.1 µM / remaining activity at 0.5 µM: read-out: % Enzyme Activity (relative to DMSO controls)
T2 sequence (P53778 1-367): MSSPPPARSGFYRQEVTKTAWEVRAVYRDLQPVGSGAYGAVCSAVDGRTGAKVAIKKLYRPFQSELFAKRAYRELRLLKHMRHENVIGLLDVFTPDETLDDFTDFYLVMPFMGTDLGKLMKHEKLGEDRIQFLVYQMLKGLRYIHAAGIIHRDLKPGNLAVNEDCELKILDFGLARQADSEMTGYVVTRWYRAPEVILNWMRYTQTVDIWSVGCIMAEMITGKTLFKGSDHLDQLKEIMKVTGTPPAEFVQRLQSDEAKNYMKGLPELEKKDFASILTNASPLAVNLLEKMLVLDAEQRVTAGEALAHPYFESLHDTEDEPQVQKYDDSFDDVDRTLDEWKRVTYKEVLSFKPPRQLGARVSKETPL
Source text: as §1

[6] = target: 363 human kinases (including Aurora A/B/C) (Homo sapiens, UniProt P53355); conditions: DAPK1, [ATP] 10 µM; for remaining activity at 0.1 µM: 100 nM; for remaining activity at 0.1 µM / remaining activity at 0.5 µM: read-out: % Enzyme Activity (relative to DMSO controls)
Source text: as §1

[7] = target: 363 human kinases (including Aurora A/B/C) (Homo sapiens, UniProt Q96RG2); conditions: PASK; for remaining activity at 0.1 µM: 100 nM; for remaining activity at 0.1 µM / remaining activity at 0.5 µM: read-out: % Enzyme Activity (relative to DMSO controls)
Source text: as §1

[8] = target: 363 human kinases (including Aurora A/B/C) (Homo sapiens, UniProt P42685); conditions: FRK/PTK5; for remaining activity at 0.1 µM: 100 nM; for remaining activity at 0.1 µM / remaining activity at 0.5 µM: read-out: % Enzyme Activity (relative to DMSO controls)
Source text: as §1

[9] = target: 363 human kinases (including Aurora A/B/C) (Homo sapiens, UniProt O94804); conditions: LOK/STK10; for remaining activity at 0.1 µM: 100 nM; for remaining activity at 0.1 µM / remaining activity at 0.5 µM: read-out: % Enzyme Activity (relative to DMSO controls)
Source text: as §1

[10] = target: T3, 363 human kinases (including Aurora A/B/C) (Homo sapiens, UniProt Q96KB5); conditions: PBK/TOPK; for remaining activity at 0.1 µM: 100 nM; for remaining activity at 0.1 µM / remaining activity at 0.5 µM: read-out: % Enzyme Activity (relative to DMSO controls)
T3 sequence (Q96KB5 1-322): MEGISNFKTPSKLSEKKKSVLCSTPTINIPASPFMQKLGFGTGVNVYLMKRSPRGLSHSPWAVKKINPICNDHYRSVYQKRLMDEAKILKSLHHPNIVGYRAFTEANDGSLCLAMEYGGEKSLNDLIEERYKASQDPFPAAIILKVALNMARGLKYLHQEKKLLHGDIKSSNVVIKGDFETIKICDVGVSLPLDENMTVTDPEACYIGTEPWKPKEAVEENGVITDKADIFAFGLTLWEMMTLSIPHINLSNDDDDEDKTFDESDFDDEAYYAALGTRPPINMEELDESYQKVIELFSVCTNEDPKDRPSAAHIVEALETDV
Source text: as §1

[11] = target: 363 human kinases (including Aurora A/B/C) (Homo sapiens, UniProt P49759); conditions: CLK1, [ATP] 2.5 µM; for remaining activity at 0.1 µM: 100 nM; for remaining activity at 0.1 µM / remaining activity at 0.5 µM: read-out: % Enzyme Activity (relative to DMSO controls)
Source text: as §1

[12] = target: 363 human kinases (including Aurora A/B/C) (Homo sapiens, UniProt P43405); conditions: SYK; for remaining activity at 0.1 µM: 100 nM; for remaining activity at 0.1 µM / remaining activity at 0.5 µM: read-out: % Enzyme Activity (relative to DMSO controls)
Source text: as §1

[13] = target: 363 human kinases (including Aurora A/B/C) (Homo sapiens, UniProt Q8N4C8); conditions: MINK/MINK1; for remaining activity at 0.1 µM: 100 nM; for remaining activity at 0.1 µM / remaining activity at 0.5 µM: read-out: % Enzyme Activity (relative to DMSO controls)
Source text: as §1

[14] = target: 363 human kinases (including Aurora A/B/C) (Homo sapiens, UniProt Q8TDX7); conditions: NEK7; for remaining activity at 0.1 µM: 100 nM; for remaining activity at 0.1 µM / remaining activity at 0.5 µM: read-out: % Enzyme Activity (relative to DMSO controls)
Source text: as §1

[15] = FLT4/VEGFR3, [ATP] 5 µM, 500 nM

Chain of 363 human kinases (including Aurora A/B/C) (Homo sapiens, UniProt Q96RG2) (Q96RG2 whole entry): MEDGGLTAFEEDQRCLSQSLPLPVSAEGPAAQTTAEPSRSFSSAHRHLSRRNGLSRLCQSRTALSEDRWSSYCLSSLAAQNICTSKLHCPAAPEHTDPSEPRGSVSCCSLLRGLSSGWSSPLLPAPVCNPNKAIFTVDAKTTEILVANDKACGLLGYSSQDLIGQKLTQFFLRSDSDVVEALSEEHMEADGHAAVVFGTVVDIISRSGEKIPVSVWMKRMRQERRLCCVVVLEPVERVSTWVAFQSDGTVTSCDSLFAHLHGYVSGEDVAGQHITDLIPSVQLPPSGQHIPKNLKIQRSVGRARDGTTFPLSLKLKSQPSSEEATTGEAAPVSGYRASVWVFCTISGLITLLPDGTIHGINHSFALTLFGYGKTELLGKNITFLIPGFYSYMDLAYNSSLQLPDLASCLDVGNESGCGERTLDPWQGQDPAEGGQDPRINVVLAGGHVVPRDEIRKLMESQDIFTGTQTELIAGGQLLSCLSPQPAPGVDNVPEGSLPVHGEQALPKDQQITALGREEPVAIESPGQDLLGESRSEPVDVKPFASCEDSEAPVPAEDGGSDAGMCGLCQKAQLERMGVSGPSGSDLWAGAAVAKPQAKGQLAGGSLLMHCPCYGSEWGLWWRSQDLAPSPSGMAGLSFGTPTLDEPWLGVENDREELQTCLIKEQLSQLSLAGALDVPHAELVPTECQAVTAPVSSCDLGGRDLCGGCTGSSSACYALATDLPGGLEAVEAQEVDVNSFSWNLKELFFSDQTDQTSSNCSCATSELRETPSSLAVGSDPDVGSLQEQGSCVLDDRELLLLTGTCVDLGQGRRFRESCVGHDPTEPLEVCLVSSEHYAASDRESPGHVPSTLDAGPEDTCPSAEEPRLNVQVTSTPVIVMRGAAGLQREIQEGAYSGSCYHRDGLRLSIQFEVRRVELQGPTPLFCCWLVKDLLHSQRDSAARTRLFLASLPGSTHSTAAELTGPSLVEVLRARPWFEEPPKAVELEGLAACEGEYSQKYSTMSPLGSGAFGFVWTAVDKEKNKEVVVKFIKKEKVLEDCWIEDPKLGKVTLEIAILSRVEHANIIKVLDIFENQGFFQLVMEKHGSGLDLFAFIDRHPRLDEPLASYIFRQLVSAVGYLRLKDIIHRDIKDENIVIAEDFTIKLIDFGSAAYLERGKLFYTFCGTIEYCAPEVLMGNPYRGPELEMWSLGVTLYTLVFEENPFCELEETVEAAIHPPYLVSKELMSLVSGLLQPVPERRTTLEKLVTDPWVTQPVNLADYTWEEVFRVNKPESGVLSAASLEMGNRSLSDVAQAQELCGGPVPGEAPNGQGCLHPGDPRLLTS
Chain of 363 human kinases (including Aurora A/B/C) (Homo sapiens, UniProt Q8N4C8) (Q8N4C8 whole entry): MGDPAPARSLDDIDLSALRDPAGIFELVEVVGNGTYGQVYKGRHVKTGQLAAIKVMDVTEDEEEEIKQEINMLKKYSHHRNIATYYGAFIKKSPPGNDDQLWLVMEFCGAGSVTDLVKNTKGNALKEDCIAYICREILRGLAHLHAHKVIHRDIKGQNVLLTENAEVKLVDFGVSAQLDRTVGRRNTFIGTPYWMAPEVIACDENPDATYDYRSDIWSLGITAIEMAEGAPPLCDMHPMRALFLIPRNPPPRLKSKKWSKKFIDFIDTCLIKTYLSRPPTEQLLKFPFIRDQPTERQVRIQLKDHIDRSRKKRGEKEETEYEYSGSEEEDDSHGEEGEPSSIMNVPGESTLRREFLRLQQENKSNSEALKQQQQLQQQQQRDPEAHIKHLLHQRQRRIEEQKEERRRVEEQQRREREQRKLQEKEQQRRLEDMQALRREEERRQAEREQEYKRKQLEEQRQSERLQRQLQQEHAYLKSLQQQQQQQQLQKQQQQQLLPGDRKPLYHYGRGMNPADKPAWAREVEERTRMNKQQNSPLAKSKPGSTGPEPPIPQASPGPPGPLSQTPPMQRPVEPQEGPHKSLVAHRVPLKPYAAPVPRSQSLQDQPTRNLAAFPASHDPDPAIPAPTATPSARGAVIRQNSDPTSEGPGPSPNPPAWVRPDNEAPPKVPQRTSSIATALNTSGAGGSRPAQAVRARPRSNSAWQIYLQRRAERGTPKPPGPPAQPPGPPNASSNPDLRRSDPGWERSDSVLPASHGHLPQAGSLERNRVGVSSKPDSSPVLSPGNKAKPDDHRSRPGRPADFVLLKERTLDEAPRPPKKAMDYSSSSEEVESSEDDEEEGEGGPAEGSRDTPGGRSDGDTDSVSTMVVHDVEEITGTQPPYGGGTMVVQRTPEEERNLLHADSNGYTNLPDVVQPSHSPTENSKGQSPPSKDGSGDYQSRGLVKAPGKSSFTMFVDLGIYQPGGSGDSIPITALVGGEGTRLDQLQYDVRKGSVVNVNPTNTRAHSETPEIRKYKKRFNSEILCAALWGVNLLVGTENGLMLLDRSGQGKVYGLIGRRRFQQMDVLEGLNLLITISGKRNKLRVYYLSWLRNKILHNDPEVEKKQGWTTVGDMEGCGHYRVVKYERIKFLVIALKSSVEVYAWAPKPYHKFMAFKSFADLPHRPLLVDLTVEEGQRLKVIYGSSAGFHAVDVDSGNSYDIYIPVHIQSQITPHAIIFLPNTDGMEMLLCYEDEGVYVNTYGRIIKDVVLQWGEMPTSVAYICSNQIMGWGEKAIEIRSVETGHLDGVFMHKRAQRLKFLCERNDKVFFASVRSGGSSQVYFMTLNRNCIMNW
Chain of 363 human kinases (including Aurora A/B/C) (Homo sapiens, UniProt Q8TDX7) (Q8TDX7 whole entry): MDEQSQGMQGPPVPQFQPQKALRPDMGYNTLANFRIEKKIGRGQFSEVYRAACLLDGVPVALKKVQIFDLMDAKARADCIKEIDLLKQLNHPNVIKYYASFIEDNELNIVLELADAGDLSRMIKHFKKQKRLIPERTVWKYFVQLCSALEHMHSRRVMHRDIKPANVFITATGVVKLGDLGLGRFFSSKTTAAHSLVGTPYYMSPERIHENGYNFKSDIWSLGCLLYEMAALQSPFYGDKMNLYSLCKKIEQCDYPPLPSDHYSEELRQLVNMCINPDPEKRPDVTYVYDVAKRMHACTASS
Chain of 363 human kinases (including Aurora A/B/C) (Homo sapiens, UniProt Q9H3Y6) (Q9H3Y6 whole entry): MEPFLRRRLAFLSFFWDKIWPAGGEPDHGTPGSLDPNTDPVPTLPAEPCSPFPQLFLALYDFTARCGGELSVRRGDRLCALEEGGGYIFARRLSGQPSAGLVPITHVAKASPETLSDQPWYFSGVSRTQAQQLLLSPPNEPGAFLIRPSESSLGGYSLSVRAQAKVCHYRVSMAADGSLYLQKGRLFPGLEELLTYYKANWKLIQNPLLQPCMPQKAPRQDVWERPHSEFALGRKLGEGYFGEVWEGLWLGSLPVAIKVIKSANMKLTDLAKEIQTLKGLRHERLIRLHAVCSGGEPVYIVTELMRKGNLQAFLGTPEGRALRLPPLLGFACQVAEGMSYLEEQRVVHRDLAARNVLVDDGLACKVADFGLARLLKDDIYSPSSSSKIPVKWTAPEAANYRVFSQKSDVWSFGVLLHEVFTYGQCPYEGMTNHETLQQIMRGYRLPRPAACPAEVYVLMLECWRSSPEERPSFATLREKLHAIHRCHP
Chain of 363 human kinases (including Aurora A/B/C) (Homo sapiens, UniProt P42685) (P42685 whole entry): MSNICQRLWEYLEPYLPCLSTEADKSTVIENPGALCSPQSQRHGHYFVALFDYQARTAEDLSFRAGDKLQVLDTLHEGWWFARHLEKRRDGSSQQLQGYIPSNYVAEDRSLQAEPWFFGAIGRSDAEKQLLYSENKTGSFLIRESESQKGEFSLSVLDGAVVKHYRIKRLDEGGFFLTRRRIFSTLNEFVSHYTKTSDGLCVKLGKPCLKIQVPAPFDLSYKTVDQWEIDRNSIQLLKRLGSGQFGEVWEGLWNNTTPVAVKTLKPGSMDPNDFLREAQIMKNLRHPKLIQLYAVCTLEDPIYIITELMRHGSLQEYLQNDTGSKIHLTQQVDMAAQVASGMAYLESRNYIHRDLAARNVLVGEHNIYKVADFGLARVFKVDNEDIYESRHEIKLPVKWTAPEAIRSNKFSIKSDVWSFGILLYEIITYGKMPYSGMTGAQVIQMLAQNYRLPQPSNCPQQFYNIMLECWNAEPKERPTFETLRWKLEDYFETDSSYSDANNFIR
Chain of 363 human kinases (including Aurora A/B/C) (Homo sapiens, UniProt P49759) (P49759 whole entry): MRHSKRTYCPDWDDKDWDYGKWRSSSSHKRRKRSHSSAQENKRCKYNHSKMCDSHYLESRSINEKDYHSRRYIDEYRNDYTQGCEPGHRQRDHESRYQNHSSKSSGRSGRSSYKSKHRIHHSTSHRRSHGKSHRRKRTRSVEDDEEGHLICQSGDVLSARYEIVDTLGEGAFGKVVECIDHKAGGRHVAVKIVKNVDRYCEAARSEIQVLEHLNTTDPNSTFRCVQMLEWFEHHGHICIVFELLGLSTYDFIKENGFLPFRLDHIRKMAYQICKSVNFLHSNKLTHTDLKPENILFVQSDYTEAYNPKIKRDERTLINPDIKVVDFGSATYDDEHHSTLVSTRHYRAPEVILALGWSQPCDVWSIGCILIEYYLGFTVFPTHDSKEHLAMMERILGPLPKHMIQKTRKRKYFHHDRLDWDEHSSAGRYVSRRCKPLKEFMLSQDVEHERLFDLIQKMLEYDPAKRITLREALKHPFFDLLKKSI

CCn1cc(-c2ccnc3[nH]c(-c4cccc(CN(C)C)c4)cc23)c(-c2ccc(NC(=O)N(C)C)cc2)n1 [GSK1070916]
remaining activity at 0.1 µM [1]: 97.8%
remaining activity at 0.1 µM [2]: 96%
remaining activity at 0.1 µM [3]: 95%
remaining activity at 0.1 µM [4]: 60.2% and 59.9%
remaining activity at 0.1 µM [5]: 115%
remaining activity at 0.1 µM [6]: 94.7%
remaining activity at 0.1 µM [7]: 102%
remaining activity at 0.1 µM [8]: 99.9%
remaining activity at 0.1 µM [9]: 73.2%
remaining activity at 0.1 µM [10]: 97.5%
remaining activity at 0.1 µM [11]: 114%
remaining activity at 0.1 µM [12]: 84.8%
remaining activity at 0.1 µM [13]: 78.3%
remaining activity at 0.1 µM [14]: 102%

O=C(O)[C@]1(Cc2cccc(Nc3nccs3)n2)CC[C@@H](Oc2cccc(Cl)c2F)CC1 [MK-5108]
remaining activity at 0.1 µM [1]: 17.4%
remaining activity at 0.5 µM ([1]; 500 nM): 3.79%
remaining activity at 0.1 µM [2]: 104%
remaining activity at 0.5 µM ([2]; 500 nM): 71.9%
remaining activity at 0.1 µM [3]: 95.1%
remaining activity at 0.5 µM ([3]; 500 nM): 94.8%
remaining activity at 0.1 µM ([4]; FLT4/VEGFR3, [ATP] 5 µM, 100 nM): 26.2%
remaining activity at 0.5 µM [4, 15]: 6.3%
remaining activity at 0.1 µM [5]: 100%
remaining activity at 0.5 µM ([5]; 500 nM): 112%
remaining activity at 0.1 µM [6]: 104%
remaining activity at 0.5 µM ([6]; 500 nM): 101%
remaining activity at 0.1 µM [7]: 100%
remaining activity at 0.5 µM ([7]; 500 nM): 104%
remaining activity at 0.1 µM [8]: 41%
remaining activity at 0.5 µM ([8]; 500 nM): 19.8%
remaining activity at 0.1 µM [9]: 34%
remaining activity at 0.5 µM ([9]; 500 nM): 10.3%
remaining activity at 0.1 µM [10]: 93.9%
remaining activity at 0.5 µM ([10]; 500 nM): 95.4%
remaining activity at 0.1 µM [11]: 68.1%
remaining activity at 0.5 µM ([11]; 500 nM): 29.1%
remaining activity at 0.1 µM [12]: 93.8%
remaining activity at 0.5 µM ([12]; 500 nM): 63.6%
remaining activity at 0.1 µM [13]: 80%
remaining activity at 0.5 µM ([13]; 500 nM): 53.4%
remaining activity at 0.1 µM [14]: 98.5%
remaining activity at 0.5 µM ([14]; 500 nM): 109%

O=C(c1cccc(Cl)c1F)N1CCN(Cc2cccc(Nc3nccs3)n2)CC1 [MK-8745]
% Enzyme Activity (relative to DMSO controls) ([1]; 500 nM): 84.03%
remaining activity at 0.5 µM ([1]; 500 nM): 84.5%
% Enzyme Activity (relative to DMSO controls) ([2]; 500 nM): 94.70%
remaining activity at 0.5 µM ([2]; 500 nM): 95.3%
% Enzyme Activity (relative to DMSO controls) ([3]; 500 nM): 96.62%
remaining activity at 0.5 µM ([3]; 500 nM): 98.4%
% Enzyme Activity (relative to DMSO controls) [4, 15]: 87.71%
remaining activity at 0.5 µM [4, 15]: 88.4%
% Enzyme Activity (relative to DMSO controls) ([5]; 500 nM): 107.28%
remaining activity at 0.5 µM ([5]; 500 nM): 110%
% Enzyme Activity (relative to DMSO controls) ([6]; 500 nM): 98.77%
remaining activity at 0.5 µM ([6]; 500 nM): 101%
% Enzyme Activity (relative to DMSO controls) ([7]; 500 nM): 101.46%
remaining activity at 0.5 µM ([7]; 500 nM): 103%
% Enzyme Activity (relative to DMSO controls) ([8]; 500 nM): 94.09%
remaining activity at 0.5 µM ([8]; 500 nM): 98.1%
% Enzyme Activity (relative to DMSO controls) ([9]; 500 nM): 49.80%
remaining activity at 0.5 µM ([9]; 500 nM): 52.1%
% Enzyme Activity (relative to DMSO controls) ([10]; 500 nM): 91.24%
remaining activity at 0.5 µM ([10]; 500 nM): 94.4%
% Enzyme Activity (relative to DMSO controls) ([11]; 500 nM): 91.67%
remaining activity at 0.5 µM ([11]; 500 nM): 92.5%
% Enzyme Activity (relative to DMSO controls) ([12]; 500 nM): 82.70%
remaining activity at 0.5 µM ([12]; 500 nM): 83.2%
% Enzyme Activity (relative to DMSO controls) ([13]; 500 nM): 82.81%
remaining activity at 0.5 µM ([13]; 500 nM): 86.8%
% Enzyme Activity (relative to DMSO controls) ([14]; 500 nM): 107.51%
remaining activity at 0.5 µM ([14]; 500 nM): 109%
